In patent US4735954A, “Anti-rheumatic agent” (priority 1985, dated 1988):

Legend:
[1] = tested on: Adjuvant-induced Secondary Inflammation; assay: adjuvant-induced arthritis in rats, secondary inflammation; format: in vivo, female Wistar rats
Experimental: (§1) Eight female Wistar rats in each group, weighing 140-200 g were used. The arthritis was induced by intradermal injection of Mycobacterium butyricum suspended in liquid paraffin (0.6 mg/0.1 ml) as the adjuvant to tail. The change in volume of both legs due to the formation of edema was measured 12, 16 and 19 days after the adjuvant challenge. In addition, a severity of the secondary inflammation observed in auricles, paws, legs and tail was graded into the degrees of 0-4.

[2] = tested on: Adjuvant-induced Edema in Left Legs; assay: adjuvant-induced arthritis in rats, edema in left legs; format: in vivo, female Wistar rats
Experimental: as §1

[3] = acute toxicity in rats; settings: rat, in vivo
[4] = acute toxicity in mice; settings: mouse, in vivo
[5] = tested on: Arthus reaction (type III allergic reaction); settings: own earlier publication; cited from earlier work
[6] = tested on: rats and mice; assay: toxicological studies (acute, subacute, chronic); format: in vivo; settings: acute (several routes), subacute (oral, one month), chronic (oral, six months)
[7] = tested on: type I (immediate type) allergic reaction; settings: own earlier publications; cited from earlier work
[8] = tested on: adjuvant-induced experimental arthritis; assay: adjuvant-induced experimental arthritis in rats (overall); format: in vivo; settings: oral, 20 mg/kg once or 10 mg/kg twice every day
Experimental: as §1

[9] = disclosed in earlier patents; cited from earlier work
[10] = disclosed in earlier patents; cited from earlier work; remark: listed apart in the source
[11] = tested on: Adjuvant-induced Edema in Right Legs; assay: adjuvant-induced arthritis in rats, edema in right legs; format: in vivo, female Wistar rats
Experimental: as §1

[12] = 10 × 2 mg/kg/day p.o., 12th day
[13] = 10 × 2 mg/kg/day p.o., 16th day
[14] = 10 × 2 mg/kg/day p.o., 19th day

CC(C)C(=O)c1c(C(C)C)nn2ccccc12 [KC-404, 3-isobutyryl-2-isopropylpyrazalo[1,5-a]pyridine]
Inflammation Score ([1]; 20 mg/kg/day p.o., 16th day, control 11.8): 6.6
Inflammation Score ([1]; 20 mg/kg/day p.o., 19th day, control 17.0): 10.3
Inflammation Score ([1]; 10 × 2 mg/kg/day p.o., 16th day, control 11.8): 9.0
Inflammation Score ([1]; 10 × 2 mg/kg/day p.o., 19th day, control 17.0): 11.4
Inhibition of edema in left legs ([2]; 20 mg/kg/day p.o., 12th day): 71.7%
Inhibition of edema in left legs ([2]; 20 mg/kg/day p.o., 16th day): 79.9%
Inhibition of edema in left legs ([2]; 20 mg/kg/day p.o., 19th day): 61.1%
Inhibition of edema in left legs [2, 12]: 50.2%
Inhibition of edema in left legs [2, 13]: 28.6%
Inhibition of edema in left legs [2, 14]: 41.9%
LD50 ([3]; ip, Female): 419 mg/kg
LD50 ([3]; ip, Male): 500 mg/kg
LD50 ([3]; iv, Female): 42.5 mg/kg
LD50 ([3]; iv, Male): 43.2 mg/kg
LD50 ([3]; po, Female): 1400 mg/kg
LD50 ([3]; sc, Female): 1370 mg/kg
LD50 ([3]; sc, Male): 1450 mg/kg
LD50 ([4]; ip, Female): 500 mg/kg
LD50 ([4]; ip, Male): 460 mg/kg
LD50 ([4]; iv, Female): 146 mg/kg
LD50 ([4]; iv, Male): 160 mg/kg
LD50 ([4]; po, Female): 1860 mg/kg
LD50 ([4]; po, Male): 1880 mg/kg
LD50 ([4]; sc, Female): 3100 mg/kg
LD50 ([4]; sc, Male): 3000 mg/kg
effect on the Arthus reaction (type III allergic reaction) [5]: inhibits
toxicity [6]: low in toxicity
effect on type I allergic reaction [7]: inhibitory effect
inhibition of the production of adjuvant-induced experimental arthritis [8]: markedly inhibits
cerebral vasodilating effect [9]: Cerebral vasodilating
bronchodilating effect [10]: bronchodilating
Inhibition of edema in right legs ([11]; 20 mg/kg/day p.o., 12th day): 44.4%
Inhibition of edema in right legs ([11]; 20 mg/kg/day p.o., 16th day): 80.8%
Inhibition of edema in right legs ([11]; 20 mg/kg/day p.o., 19th day): 53.1%
Inhibition of edema in right legs [11, 12]: 19.8%
Inhibition of edema in right legs [11, 13]: 56.6%
Inhibition of edema in right legs [11, 14]: 39.9%

C[C@]12CCC(=O)C=C1CC[C@@H]1[C@@H]2[C@@H](O)C[C@@]2(C)[C@H]1CC[C@]2(O)C(=O)CO [Hydrocortisone, reference compound]
Inflammation Score ([1]; 5 mg/kg/day p.o., 16th day, control 11.8): 8.1
Inflammation Score ([1]; 5 mg/kg/day p.o., 19th day, control 17.0): 9.3
Inhibition of edema in left legs ([2]; 5 mg/kg/day p.o., 12th day): 57.0%
Inhibition of edema in left legs ([2]; 5 mg/kg/day p.o., 16th day): 53.1%
Inhibition of edema in left legs ([2]; 5 mg/kg/day p.o., 19th day): 54.7%
Inhibition of edema in right legs ([11]; 5 mg/kg/day p.o., 12th day): 90.9%
Inhibition of edema in right legs ([11]; 5 mg/kg/day p.o., 16th day): 60.1%
Inhibition of edema in right legs ([11]; 5 mg/kg/day p.o., 19th day): 57.8%
